Source: patent US4803199A, “Pharmaceutically useful heterocyclic and carbocyclic acid esters and amides of alkylene bridged piperidines” (priority 1987, dated 1989)

Assays:
M receptors = conditions: blister base on forearm of human volunteers; cited from earlier work
[1] = test system: M receptors for serotonin; conditions: isolated rabbit vagus nerve; cited from earlier work
serotonin M receptor = molecular target: T1, serotonin M receptor (Oryctolagus cuniculus, UniProt A0A5F9C9J3); experiment: inhibition of the effect of serotonin on the isolated rabbit heart; conditions: rabbit heart test, antagonism of serotonin; read-out: pA2 value (converted)
T1 construct: isolated rabbit heart; from tissue; host or cells: isolated rabbit heart
T1 sequence (A0A5F9C9J3 1-494): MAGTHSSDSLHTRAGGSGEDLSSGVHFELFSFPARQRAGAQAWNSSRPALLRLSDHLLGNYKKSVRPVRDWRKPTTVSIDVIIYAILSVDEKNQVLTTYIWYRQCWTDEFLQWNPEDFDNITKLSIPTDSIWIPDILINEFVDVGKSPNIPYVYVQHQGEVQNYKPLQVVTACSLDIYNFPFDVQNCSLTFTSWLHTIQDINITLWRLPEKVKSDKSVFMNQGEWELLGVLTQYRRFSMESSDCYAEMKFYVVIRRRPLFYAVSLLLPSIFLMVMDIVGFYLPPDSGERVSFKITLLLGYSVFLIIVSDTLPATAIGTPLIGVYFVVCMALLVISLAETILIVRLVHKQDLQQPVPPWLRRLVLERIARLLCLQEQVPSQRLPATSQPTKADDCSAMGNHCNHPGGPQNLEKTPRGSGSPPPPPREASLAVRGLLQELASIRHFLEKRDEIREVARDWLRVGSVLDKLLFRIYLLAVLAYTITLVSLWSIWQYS
Text: The serotonin M receptor antagonist activity is also indicated by inhibiting the effect of serotonin on the isolated rabbit heart according to the method of J. R. Fozard and A. T. Moborak Ali, European Journal of Pharmacology, (1978) 49, 109-112 at concentrations of 10^-11 to 10^-5 M of the compound of the invention. pD'2 or pA2 values may be calculated in the conventional manner.

Compound | block of the action of serotonin on C fibre action potential amplitude [1] | Kb (serotonin M receptor) [nM] | also measured
CCN(CC)C(=O)[C@@H]1C=C2c3cccc4[nH]cc(c34)C[C@H]2N(C)C1 [lysergic acid diethylamide] | – | – | inhibition of the algesic action of serotonin (M receptors): not inhibited
CC[C@@H](CO)NC(=O)[C@@H]1C=C2c3cccc4c3c(cn4C)C[C@H]2N(C)C1 [methysergide] | not blocked | – | –
CSc1ccc2c(c1)C(N1CCN(C)CC1)Cc1ccccc1S2 (stereo not drawn) [metitepine] | not blocked | – | –
COc1cc(N(C)C)ccc1C(=O)O[C@@H]1C[C@H]2CC[C@@H](C1)N2Cc1ccccc1 [Example C-2] | – | 0.01 | –
CCN(CC)C(=O)[C@@H]1C=C2c3cccc4[nH]c(Br)c(c34)C[C@H]2N(C)C1 [BOL-148] | not blocked | – | –
CCN(CC)CCNC(=O)c1cc(Cl)c(N)cc1OC [metoclopramide] | – | 79.4 | –
